Where two headings read alike, the source gives them in different places.

In experiment [1] the test system is RAN translation of (G4C2)66-No ATG-GFP in HEK293T cells. The experiment is described as follows: Cell-based assay of RAN translation inhibition (GFP/mCherry reporter). To be noted: Homo sapiens, HEK-293T, 24 h, read-out: RANT IC25.
In experiment [2] the target is biotinylated r(G4C2)8 RNA and hnRNP H1-His6. The experiment is described as follows: TR-FRET hnRNP H binding assay. The procedure, abridged: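 Biotinylated r(G4C2)8 RNA (80 nM), heat-folded at 95 °C then slowly cooled, was preincubated 15 min with compound before hnRNP H1-His6 (75 nM) was added. After 15 min, streptavidin-XL665 (40 nM) and anti-His6-Tb (0.44 ng/μL) were added and TR-FRET was read after 1 h. IC50 was obtained by curve fitting.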
(Time-resolved FRET reads energy transfer from a long-lived donor to a nearby acceptor.)

Setting [3] is: Table F, HEK293T, 24 h treatment.
[4] abbreviates: Table D, HEK293T, 24 h treatment.

One may read the IC25 as the point of the concentration-response curve where the effect stands at 25%. For orientation: Ki means the equilibrium dissociation constant of an inhibitor or competing ligand from its target. `Cc1c2ccncc2cc2c3cc(OCC4=NCCN4)ccc3n(CCC(C)C)c12` [Compound 249, 9-(4,5-dihydro-1H-imidazol-2-ylmethoxy)-6-isopentyl-5-methyl-pyrido[4,3-b]carbazole]: the concentration for an effect of 25% (IC25) in experiment [1] (setting [3]) was > 5 µM. The same compound showed a Ki in experiment [2] (Table F) of 22 µM.

On to `CNC(=O)COc1ccc2c(c1)c1cc3cnccc3c(C)c1n2C` [Example 34, 2-((5,6-dimethyl-6H-pyrido[4,3-b]carbazol-9-yl)oxy)-N-methylacetamide], for which the IC25 in experiment [1] (setting [4]) is 1.2 µM. For the same compound, the inhibition constant (Ki) in experiment [2] (Table D) was 6.1 µM.

As to `CNC(=O)c1ccc2c(c1)c1cc3cnccc3c(C)c1n2C` [Example 70, N,5,6-trimethyl-6H-pyrido[4,3-b]carbazole-9-carboxamide], in experiment [1] (setting [4]), the IC25 amounted to 3.6 µM. Moreover, the Ki in experiment [2] (Table D) worked out at 36 µM.

In the case of `Cc1c2ccncc2cc2c3cc(OCC4=NCCN4)ccc3n(CC(C)(C)C)c12` [Compound 252, 9-((4,5-dihydro-1H-imidazol-2-yl)methoxy)-5-methyl-6-neopentyl-6H-pyrido[4,3-b]carbazole], the IC25 in experiment [1] (setting [3]) was > 5 µM. Besides, the Ki in experiment [2] (Table F) was > 200 µM.

`Cc1c2ccncc2cc2c3cc(N4CCNCC4)ccc3n(C)c12` [Compound 244, 5,6-dimethyl-9-(piperazin-1-yl)-6H-pyrido[4,3-b]carbazole]: the IC25 in experiment [1] (setting [3]) came to 2.4 µM. Moreover, the affinity in experiment [2] (Table F), expressed as Ki, was 0.4 µM.

For `Cc1c2ccncc2cc2c1[nH]c1ccc(OCC3=NCCN3)cc12` [Compound 257, 9-((4,5-dihydro-1H-imidazol-2-yl)methoxy)-5-methyl-6H-pyrido[4,3-b]carbazole], in experiment [1] (setting [3]), the 25% effect concentration (IC25) was 2.7 µM. Further, the inhibition constant Ki in experiment [2] (Table F) was 5.7 µM.

In the case of `Cc1c2ccncc2cc2c1oc1ccc(OCCN(C)C)cc12` [Compound 236, N,N-dimethyl-2-((5-methylbenzofuro[2,3-g]isoquinolin-9-yl)oxy)ethanamine], the 25% effect concentration (IC25) in experiment [1] was > 5 µM. For the same compound, the Ki in experiment [2] (Table F) is 14 µM.

For the compound `Cc1c2ccncc2cc2c3cc(OCC(N)=O)ccc3n(C)c12` [Compound 12, 2-((5,6-dimethyl-6H-pyrido[4,3-b]carbazol-9-yl)oxy)acetamide], the IC25 in experiment [1] (setting [4]) amounted to 0.3 µM. In experiment [2] (Table D), this compound came in with a Ki of 18 µM.

In the case of `Cc1c2ccncc2cc2c3cc(OCC(=O)NCCN4CCOCC4)ccc3n(C)c12` [Example 42, 2-((5,6-dimethyl-6H-pyrido[4,3-b]carbazol-9-yl)oxy)-N-(2-morpholinoethyl)acetamide], in experiment [1] (setting [4]), the IC25 is > 5 µM. The compound further came in with a Ki in experiment [2] (Table D) of 9.2 µM.

As to `Cc1c2ccncc2cc2c3ccc(OCC4=NCCN4)cc3n(C)c12` [Example 52, 8-((4,5-dihydro-1H-imidazol-2-yl)methoxy)-5,6-dimethyl-6H-pyrido[4,3-b]carbazole], in experiment [1] (setting [4]), the IC25 came out at 3.1 µM. In experiment [2] (Table D), this compound registered an inhibition constant Ki of 5.6 µM.

Regarding `Cc1c2ccncc2cc2c3cc(C(N)=O)ccc3n(C)c12` [Example 69, 5,6-dimethyl-6H-pyrido[4,3-b]carbazole-9-carboxamide], the IC25 in experiment [1] (setting [4]) stood at 1.6 µM. The compound further came in with a Ki in experiment [2] (Table D) of 12 µM.

With `Cc1c2ccncc2cc2c1oc1ccc(OCCN3CCOCC3)cc12` [Compound 231, 5-methyl-9-(2-morpholinoethoxy)benzofuro[2,3-g]isoquinoline], the IC25 in experiment [1] was > 5 µM. Also, in experiment [2] (Table F), the Ki was > 200 µM.

Consider `Cc1c2ccncc2cc2c3cc(OCC(=O)N(C)C)ccc3n(C)c12` [Example 57, 2-((5,6-dimethyl-6H-pyrido[4,3-b]carbazol-9-yl)oxy)-N,N-dimethylacetamide], for which the IC25 in experiment [1] (setting [4]) came out at 4 µM. Moreover, in experiment [2] (Table D), the Ki stood at 5.2 µM.

Regarding `CNCCNC(=O)c1ccc2c(c1)c1cc3cnccc3c(C)c1n2C` [Example 73, 5,6-dimethyl-N-(2-(methylamino)ethyl)-6H-pyrido[4,3-b]carbazole-9-carboxamide], the IC25 in experiment [1] (setting [4]) came to 0.84 µM. In addition, in experiment [2] (Table D), the Ki stood at 13 µM.

On to `Cc1c2ccncc2cc2c3cc(OC[C@H](C)N(C)C)ccc3n(C)c12` [Compound 230, (S)-1-((5,6-dimethyl-6H-pyrido[4,3-b]carbazol-9-yl)oxy)-N,N-dimethylpropan-2-amine], for which, in experiment [1] (setting [3]), the concentration for an effect of 25% (IC25) came to 4.3 µM. The same compound had a Ki in experiment [2] (Table F) of 1.2 µM.

`Cc1c2ccncc2cc2c3cc(OCCCN4CCN(C)CC4)ccc3n(C)c12` [Compound 23, 5,6-dimethyl-9-(3-(4-methylpiperazin-1-yl)propoxy)-6H-pyrido[4,3-b]carbazole]: the IC25 in experiment [1] (setting [4]) was > 5 µM. In addition, the inhibition constant (Ki) in experiment [2] (Table D) was 9.4 µM.

As for `Cc1c2ccncc2cc2c3cc(OCCN4CCCCCC4)ccc3n(C)c12` [Compound 219, 9-(2-(azepan-1-yl)ethoxy)-5,6-dimethyl-6H-pyrido[4,3-b]carbazole], in experiment [1], the IC25 was > 5 µM. For the same compound, the Ki in experiment [2] (Table F) was found to be 1.2 µM.

On to `Cc1c2ccncc2cc2c3cc(C(=O)NCCO)ccc3n(C)c12` [Compound 214, N-(2-hydroxyethyl)-5,6-dimethyl-6H-pyrido[4,3-b]carbazole-9-carboxamide], for which the IC25 in experiment [1] (setting [3]) stood at 1 µM. Also, the Ki in experiment [2] (Table F) was determined as 3.6 µM.

Regarding `COCCNC(=O)c1ccc2c(c1)c1cc3cnccc3c(C)c1n2C` [Compound 215, N-(2-methoxyethyl)-5,6-dimethyl-6H-pyrido[4,3-b]carbazole-9-carboxamide], the IC25 in experiment [1] (setting [3]) was > 5 µM. The affinity in experiment [2] (Table F) corresponds to a Ki of 12 µM.

For `Cn1c2ccc(OCC(=N)N)cc2c2cc3cnccc3cc21` [Compound 245, 2-((6-methyl-6H-pyrido[4,3-b]carbazol-9-yl)oxy)acetimidamide], the IC25 in experiment [1] (setting [3]) turned out to be 1.7 µM. In experiment [2] (Table F), this compound registered a Ki of 0.8 µM.

With `Cc1c2ccncc2cc2c3cc(OCCN4CCOCC4)ccc3n(CC(C)(C)C)c12` [Compound 247, 4-(2-((5-methyl-6-neopentyl-6H-pyrido[4,3-b]carbazol-9-yl)oxy)ethyl)morpholine], the IC25 in experiment [1] (setting [3]) is > 5 µM. Moreover, in experiment [2] (Table F), the Ki is > 200 µM.

As to `Cc1c2ccncc2cc2c3cc(OCCCN(C)C)ccc3n(C)c12` [Compound 6, 3-((5,6-dimethyl-6H-pyrido[4,3-b]carbazol-9-yl)oxy)-N,N-dimethylpropan-1-amine], the concentration for an effect of 25% (IC25) in experiment [1] (setting [4]) was > 5 µM. In addition, the affinity in experiment [2] (Table D) corresponds to a Ki of 32 µM.

With `Cc1c2ccncc2cc2c3cc(OC[C@@H]4CCCN4)ccc3n(C)c12` [Example 39, (S)-5,6-dimethyl-9-(pyrrolidin-2-ylmethoxy)-6H-pyrido[4,3-b]carbazole], the IC25 in experiment [1] (setting [4]) turned out to be 1.3 µM. In experiment [2] (Table D), this compound came in with a Ki of 0.8 µM.

Consider `Cc1c2ccncc2cc2c3cc(OCC(=O)NCCN)ccc3n(C)c12` [Compound 4a, N-(2-aminoethyl)-2-((5,6-dimethyl-6H-pyrido[4,3-b]carbazol-9-yl)oxy)acetamide], for which the IC25 in experiment [1] (setting [4]) worked out at 0.9 µM. This compound had a Ki in experiment [2] (Table D) of 4.5 µM.

With `Cc1c2ccnc(C(=O)N[C@H](C)CN(C)C)c2cc2c3cccc(OCCCN4CCN(C)CC4)c3n(C)c12` [Compound 253, (R)—N-(1-(dimethylamino)propan-2-yl)-5,6-dimethyl-7-(3-(4-methylpiperazin-1-yl)propoxy)-6H-pyrido[4,3-b]carbazole-1-carboxamide], the IC25 in experiment [1] (setting [3]) is > 5 µM. Besides, the Ki in experiment [2] (Table F) amounted to 14 µM.

Take `COc1ccc2c(c1)c1cc3c(C(=O)N[C@H](C)CN(C)C)nccc3c(C)c1n2C` [Example 25, (R)—N-(1-(dimethylamino)propan-2-yl)-9-methoxy-5,6-dimethyl-6H-pyrido[4,3-b]carbazole-1-carboxamide]: the IC25 in experiment [1] (setting [4]) came out at 0.27 µM. The Ki in experiment [2] (Table D) came out at 39 µM.

Take `Cc1c2ccncc2cc2c3cc(OCCN4CCC(F)CC4)ccc3n(C)c12` [Compound 229, 9-(2-(4-fluoropiperidin-1-yl)ethoxy)-5,6-dimethyl-6H-pyrido[4,3-b]carbazole]: the concentration for an effect of 25% (IC25) in experiment [1] was determined as 2.2 µM. The compound further returned a Ki in experiment [2] (Table F) of 4.2 µM.

Turning to `Cc1c2ccncc2cc2c3cc(OCC4=NCCN4)ccc3n(C)c12` [Compound 3, 9-((4,5-dihydro-1H-imidazol-2-yl)methoxy)-5,6-dimethyl-6H-pyrido[4,3-b] carbazole], in experiment [1] (setting [4]), the concentration for an effect of 25% (IC25) was determined as 0.1 µM. The compound also displayed a Ki in experiment [2] (Table D) of 8.3 µM.

In the case of `Cc1c2ccncc2cc2c3cc(OC[C@@H](C)N(C)C)ccc3n(C)c12` [Compound 242, (R)-1-((5,6-dimethyl-6H-pyrido[4,3-b]carbazol-9-yl)oxy)-N,N-dimethylpropan-2-amine], in experiment [1] (setting [3]), the IC25 was determined as 1.5 µM. This compound registered a Ki in experiment [2] (Table F) of 0.5 µM.

For the compound `Cc1c2ccncc2cc2c3cc(OC[C@H](C)N)ccc3n(C)c12` [Compound 218, (S)-1-((5,6-dimethyl-6H-pyrido[4,3-b]carbazol-9-yl)oxy)propan-2-amine], the IC25 in experiment [1] (setting [3]) was found to be 0.84 µM. In experiment [2] (Table F), this compound showed a Ki of 0.8 µM.

In the case of `CCc1nccc2c(C)c3c(cc12)c1cc(OC)ccc1n3C` [Example 80a, 1-ethyl-9-methoxy-5,6-dimethyl-6H-pyrido[4,3-b]carbazole], the IC25 in experiment [1] (setting [4]) was > 5 µM. The compound further gave a Ki in experiment [2] (Table D) of 30 µM.

Take `Cc1c2ccncc2cc2c3cc(C(=O)N4CCN(C)CC4)ccc3n(C)c12` [Example 76, (5,6-dimethyl-6H-pyrido[4,3-b]carbazol-9-yl)(4-methylpiperazin-1-yl)methanone]: the IC25 in experiment [1] (setting [4]) stood at 2.2 µM. In addition, the Ki in experiment [2] (Table D) was found to be 4.2 µM.

On to `COc1ccc2c(c1)c1cc3c(C(=O)NCCN(C)C)nccc3c(C)c1n2C` [Example 28, N-[2-(dimethylamino)ethyl]-9-methoxy-5,6-dimethyl-pyrido[4,3-b]carbazole-1-carboxamide], for which, in experiment [1] (setting [4]), the IC25 is 0.64 µM. Further, the Ki in experiment [2] (Table D) turned out to be 8.1 µM.

For `Cc1c2ccncc2cc2c3cc(C(=O)NCCC4CCN(C)CC4)ccc3n(C)c12` [Example 75, 5,6-dimethyl-N-(2-(1-methylpiperidin-4-yl)ethyl)-6H-pyrido[4,3-b]carbazole-9-carboxamide], the IC25 in experiment [1] (setting [4]) was 1.4 µM. The compound further had a Ki in experiment [2] (Table D) of 29 µM.
